Where “and” joins values, the source holds several entries; their conditions need not be identical. Identical values can stand only once.
Experiments:
HEK293T cells [1] = assay: Cytotoxicity: necrosis induction (red fluorescent dye for permeable plasma membranes); assay type: cell-based; settings: 24 h, necrotic cell count normalized to 0.1% DMSO, single replicates;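 note: compounds applied in DMEM high glucose with 0.1% FCS and 0.1% DMSO, necrotic HEK293T cells counted by red staining of cells whose plasma membranes had become permeable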
Experimental: Cells were incubated with the test compounds at the indicated concentrations solubilized with 0.1% DMSO for 24 h. […] Necrotic cells were detected with a red fluorescent dye that labels cells with permeable plasma membranes after 24 h treatment and the necrotic cell count was normalized to 0.1% DMSO treated cells (n = 4). e NR family selectivity profiling of NR3 CG compound candidates in uniform Gal4-hybrid reporter gene assays for selected NR representing the NR1, NR2, NR4 and NR5 families.
HEK293T cells (German Collection of Microorganisms and Cell Culture GmbH, DSMZ; #ACC305) were cultured in DMEM high glucose, supplemented with 10% fetal calf serum (FCS), sodium pyruvate (1 mM), penicillin (100 µ/mL) and streptomycin (100 µg/mL) at 37 °C and 5% (v/v) CO2, and seeded in pre-coated (10 µg/mL collagen G solution (Merck KgaA; #L7213) for 30 min at 37 °C) 96-well plates (2 × 10^5 cells per well). After 24 h, the cells were treated with the respective NR3 CG compound candidate at the recommended concentration, bexarotene (100 µM) or doxorubicin (30 µM) as positive controls in DMEM high glucose supplemented with 0.1% FCS, penicillin (100 µ/mL), streptomycin (100 µg/mL) and 0.1% DMSO, or 0.1% DMSO alone as an untreated control. Each sample was prepared in at least four biologically independent replicates. […] Before drug administration, after the first medium exchange, 24 h after drug administration, and after fluorescence imaging cell confluence was assessed using the Tecan Spark Cyto, to account for changes in cell confluence due to drug administration and cell handling. Compound effects on cell confluence, apoptosis, metabolic activity and necrosis were normalized to the vehicle control of each biological replicate individually.

ABL1 = target: T1, ABL1 (Homo sapiens, UniProt P00519); assay: Liability panel screening by DSF: ABL1; assay type: binding; settings: DSF, 20 µM, n=2
T1 construct: made in house
Outline: (§1)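 Thermal shift: in-house recombinant protein at 2 µM in 10 mM HEPES pH 7.5 with 500 mM NaCl, SYPRO Orange 1:1000, heated at 3 °C/min to 85 °C in technical duplicates. Tm is the Boltzmann inflection point, reported as ∆Tm in K.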

AURKA = target: T2, AURKA (Homo sapiens, UniProt O14965); assay: Liability panel screening by DSF: AURKA; assay type: binding; settings: DSF, 20 µM, n=2
T2 construct: made in house
T2 sequence (O14965 1-403): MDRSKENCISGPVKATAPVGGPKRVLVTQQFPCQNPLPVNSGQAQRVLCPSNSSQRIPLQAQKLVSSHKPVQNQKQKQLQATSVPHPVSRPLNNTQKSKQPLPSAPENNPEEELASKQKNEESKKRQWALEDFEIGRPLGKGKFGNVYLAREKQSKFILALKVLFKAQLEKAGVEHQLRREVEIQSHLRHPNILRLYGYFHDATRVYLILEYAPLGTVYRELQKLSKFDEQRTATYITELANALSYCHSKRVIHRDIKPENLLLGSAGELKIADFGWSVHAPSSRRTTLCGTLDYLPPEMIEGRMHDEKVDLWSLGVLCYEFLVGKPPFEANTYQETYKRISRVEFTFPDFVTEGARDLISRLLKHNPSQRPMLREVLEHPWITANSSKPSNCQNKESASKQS
Outline: as §1

CDK2 = target: T3, CDK2 (Homo sapiens, UniProt P24941); assay: Liability panel screening by DSF: CDK2; assay type: binding; settings: DSF, 20 µM, n=2
T3 construct: made in house
Outline: as §1

FGFR3 = target: T4, FGFR3 (Homo sapiens, UniProt P22607); assay: Liability panel screening by DSF: FGFR3; assay type: binding; settings: DSF, 20 µM, n=2
T4 construct: made in house
Outline: as §1

GSK3B = target: T5, GSK3B (Homo sapiens, UniProt P49841); assay: Liability panel screening by DSF: GSK3B; assay type: binding; settings: DSF, 20 µM, n=2
T5 construct: made in house

BRD4 = target: T6, BRD4 (Homo sapiens, UniProt O60885); assay: Liability panel screening by DSF: BRD4; assay type: binding; settings: DSF, 20 µM, n=2
T6 construct: This panel comprised ten highly ligandable kinases and bromodomains; made in house
Outline: as §1

BRPF1 = target: T7, BRPF1 (Homo sapiens, UniProt P55201); assay: Liability panel screening by DSF: BRPF1; assay type: binding
T7 construct: This panel comprised ten highly ligandable kinases and bromodomains; made in house
T7 sequence (P55201 628-732 limits assumed): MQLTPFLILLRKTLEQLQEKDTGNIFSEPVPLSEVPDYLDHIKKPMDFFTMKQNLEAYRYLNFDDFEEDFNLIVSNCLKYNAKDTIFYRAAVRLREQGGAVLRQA
Outline: as §1

CSNK1D = target: T8, CSNK1D (Homo sapiens, UniProt P48730); assay: Liability panel screening by DSF: CSNK1D; assay type: binding; settings: DSF, 20 µM, n=2
T8 construct: made in house
Outline: as §1

MAPK1 = target: T9, MAPK1 (Homo sapiens, UniProt P28482); assay: Liability panel screening by DSF: MAPK1; assay type: binding; settings: DSF, 20 µM, n=2
T9 construct: made in house
Outline: as §1

TRIM24 = target: T10, TRIM24 (Homo sapiens, UniProt O15164); assay: Liability panel screening by DSF: TRIM24; assay type: binding; settings: DSF, 20 µM, n=2
T10 construct: This panel comprised ten highly ligandable kinases and bromodomains; made in house
T10 sequence (O15164 899-1004 limits assumed): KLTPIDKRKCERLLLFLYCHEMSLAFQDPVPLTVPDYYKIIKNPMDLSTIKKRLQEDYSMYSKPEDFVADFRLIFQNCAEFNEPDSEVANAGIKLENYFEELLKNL
Outline: as §1

[2] = test system: NF-κB activity in HEK293 NF-κB reporter cells; assay: NF-kB activity assay (GFP reporter, ionomycin/PMA); assay type: cell-based; settings: n=3
Outline: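 Reporter readout: GFP-expressing cells normalized to confluence, imaged every 90 min across 24 h after ionomycin (100 ng/mL)/PMA (10 ng/mL) stimulation of HEK293 cells pre-treated 4 h with compound (0.1% DMSO); triplicate independent experiments.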

[3] = test system: ATF6 activity in Hela ATF6 reporter cells; assay: Endoplasmic reticulum stress assay (ATF6 Renilla luciferase reporter, tunicamycin); assay type: cell-based; settings: single replicates n=1 to n=5
Outline: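 ER stress was induced by 100 ng/mL tunicamycin added 4 h after compound (0.1% DMSO) to HeLa ATF6 reporter cells. After 18 h more, Renilla luciferase signal was read and expressed relative to DMSO control, n=5 biological replicates.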

NR3C2 (MR) = settings: (lit.); ref Supplementary Table 1; read-out: Potency [nM] EC50, NR3C2 (MR); cited from earlier work
HEK293T cells [4] = assay: Cytotoxicity: metabolic activity (WST-8 / CCK-8 assay); settings: HEK293T, 24 h, WST-8, normalized to 0.1% DMSO, single replicates
HEK293T cells [5] = assay: Cytotoxicity: growth-rate (change in confluence over 24 h); settings: normalized to 0.1% DMSO control, single replicates (n=1...)
HEK293T cells [6] = assay: Cytotoxicity: apoptosis induction (caspase-3/7 DEVD fluorogenic DNA dye); settings: HEK293T, 24 h, apoptotic cell count normalized to 0.1% DMSO, single replicates
NR3C1 (GR) = settings: ref Supplementary Table 1, cited from earlier work
NR3C3 (PR) = settings: cited from earlier work
[7] = known off-target outside the NR family at the recommended concentration; ref Supplementary Table 1 (superscript references); cited from earlier work
NR3C4 (AR) = settings: ref Supplementary Table 1, cited from earlier work

T8 sequence (P48730 whole entry, species assumed): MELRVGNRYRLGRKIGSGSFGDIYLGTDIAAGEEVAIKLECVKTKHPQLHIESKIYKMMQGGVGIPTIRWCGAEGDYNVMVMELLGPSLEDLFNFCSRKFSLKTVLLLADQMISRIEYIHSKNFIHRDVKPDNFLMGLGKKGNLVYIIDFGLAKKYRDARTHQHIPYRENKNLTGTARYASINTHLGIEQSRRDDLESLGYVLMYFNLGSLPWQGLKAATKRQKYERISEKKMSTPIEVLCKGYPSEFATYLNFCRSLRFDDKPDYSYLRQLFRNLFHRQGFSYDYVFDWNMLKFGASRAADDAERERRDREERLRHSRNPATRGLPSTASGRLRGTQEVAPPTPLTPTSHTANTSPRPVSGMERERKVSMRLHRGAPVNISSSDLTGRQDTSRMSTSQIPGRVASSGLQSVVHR
T9 sequence (P28482 whole entry, species assumed): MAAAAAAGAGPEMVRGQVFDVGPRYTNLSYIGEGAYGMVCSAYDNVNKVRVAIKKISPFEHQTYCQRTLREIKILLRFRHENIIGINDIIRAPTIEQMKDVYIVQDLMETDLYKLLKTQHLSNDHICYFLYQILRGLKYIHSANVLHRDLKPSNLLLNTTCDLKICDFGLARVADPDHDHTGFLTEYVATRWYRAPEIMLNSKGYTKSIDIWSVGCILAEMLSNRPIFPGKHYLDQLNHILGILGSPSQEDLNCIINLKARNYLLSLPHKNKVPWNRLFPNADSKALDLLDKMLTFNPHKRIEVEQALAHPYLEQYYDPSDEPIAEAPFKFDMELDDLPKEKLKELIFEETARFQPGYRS
T4 sequence (P22607 23-806, species assumed): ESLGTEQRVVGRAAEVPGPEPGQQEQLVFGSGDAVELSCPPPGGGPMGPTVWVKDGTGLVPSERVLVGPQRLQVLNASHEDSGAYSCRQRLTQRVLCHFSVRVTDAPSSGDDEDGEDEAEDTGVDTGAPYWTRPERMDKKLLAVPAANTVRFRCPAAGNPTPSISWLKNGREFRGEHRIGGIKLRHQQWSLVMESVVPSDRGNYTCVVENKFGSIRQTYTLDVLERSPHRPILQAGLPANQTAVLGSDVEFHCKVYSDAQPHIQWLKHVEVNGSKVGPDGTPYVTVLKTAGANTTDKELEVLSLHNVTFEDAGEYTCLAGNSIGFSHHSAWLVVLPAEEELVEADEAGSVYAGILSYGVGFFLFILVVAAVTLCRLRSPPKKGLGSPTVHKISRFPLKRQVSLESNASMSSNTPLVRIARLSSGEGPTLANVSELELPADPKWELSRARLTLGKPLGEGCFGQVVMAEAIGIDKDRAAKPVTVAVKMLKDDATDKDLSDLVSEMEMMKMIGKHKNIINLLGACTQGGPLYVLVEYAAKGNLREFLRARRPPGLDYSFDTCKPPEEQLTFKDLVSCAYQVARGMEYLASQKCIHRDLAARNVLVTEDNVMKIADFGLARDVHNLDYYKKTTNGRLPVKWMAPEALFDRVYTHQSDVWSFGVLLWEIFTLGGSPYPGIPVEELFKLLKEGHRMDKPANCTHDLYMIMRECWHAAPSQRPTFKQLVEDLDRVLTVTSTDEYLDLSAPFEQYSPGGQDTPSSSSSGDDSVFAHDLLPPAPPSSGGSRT
T5 sequence (P49841 whole entry, species assumed): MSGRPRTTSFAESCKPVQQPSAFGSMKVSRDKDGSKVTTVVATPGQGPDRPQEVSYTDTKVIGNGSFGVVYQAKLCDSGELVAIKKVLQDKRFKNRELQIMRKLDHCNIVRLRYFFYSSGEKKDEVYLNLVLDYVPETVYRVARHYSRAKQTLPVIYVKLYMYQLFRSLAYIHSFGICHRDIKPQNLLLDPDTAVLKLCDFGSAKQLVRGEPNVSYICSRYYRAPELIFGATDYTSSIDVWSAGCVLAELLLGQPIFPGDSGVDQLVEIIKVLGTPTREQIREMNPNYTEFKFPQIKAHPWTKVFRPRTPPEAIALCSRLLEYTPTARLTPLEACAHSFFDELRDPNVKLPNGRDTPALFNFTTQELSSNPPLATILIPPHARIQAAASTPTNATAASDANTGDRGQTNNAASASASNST
T1 sequence (P00519 whole entry, species assumed): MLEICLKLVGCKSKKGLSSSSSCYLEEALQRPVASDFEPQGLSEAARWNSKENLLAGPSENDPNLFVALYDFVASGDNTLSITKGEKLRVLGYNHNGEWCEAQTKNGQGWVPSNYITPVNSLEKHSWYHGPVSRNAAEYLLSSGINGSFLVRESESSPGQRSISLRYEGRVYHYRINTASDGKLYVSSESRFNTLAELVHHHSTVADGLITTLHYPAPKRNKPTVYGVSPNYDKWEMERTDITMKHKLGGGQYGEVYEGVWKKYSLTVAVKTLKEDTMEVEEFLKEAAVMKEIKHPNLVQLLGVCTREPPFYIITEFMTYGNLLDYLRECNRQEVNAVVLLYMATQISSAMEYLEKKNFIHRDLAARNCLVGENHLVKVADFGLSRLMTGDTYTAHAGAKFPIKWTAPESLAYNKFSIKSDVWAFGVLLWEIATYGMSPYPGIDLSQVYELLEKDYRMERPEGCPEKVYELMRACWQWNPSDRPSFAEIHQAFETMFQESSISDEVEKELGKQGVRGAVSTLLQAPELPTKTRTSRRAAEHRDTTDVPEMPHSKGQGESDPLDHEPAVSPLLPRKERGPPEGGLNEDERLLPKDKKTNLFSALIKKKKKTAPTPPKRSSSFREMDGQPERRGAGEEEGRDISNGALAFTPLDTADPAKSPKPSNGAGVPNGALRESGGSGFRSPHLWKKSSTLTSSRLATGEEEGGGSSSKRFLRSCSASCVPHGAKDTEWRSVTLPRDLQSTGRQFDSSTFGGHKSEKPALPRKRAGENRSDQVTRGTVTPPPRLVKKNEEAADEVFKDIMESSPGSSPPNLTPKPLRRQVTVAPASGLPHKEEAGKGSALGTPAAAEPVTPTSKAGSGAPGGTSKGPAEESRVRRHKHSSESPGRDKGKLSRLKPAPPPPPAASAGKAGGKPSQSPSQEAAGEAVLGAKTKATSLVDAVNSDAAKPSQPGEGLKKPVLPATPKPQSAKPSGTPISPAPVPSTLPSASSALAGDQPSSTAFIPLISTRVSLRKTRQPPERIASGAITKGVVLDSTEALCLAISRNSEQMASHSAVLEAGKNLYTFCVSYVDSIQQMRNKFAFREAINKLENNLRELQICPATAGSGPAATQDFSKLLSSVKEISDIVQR

## C[C@]12CCC(=O)C=C1CC[C@@H]1[C@@H]2[C@@H](O)C[C@]2(C=O)[C@@H](C(=O)CO)CC[C@@H]12 [Aldosterone]
HEK293T cells [1]; 1 µM
  Necrosis induction [NI]: 0.75 and 0.67 and 0.68 and 0.72
ABL1; read-out: Mean ΔTM ABL1
  ΔTm at 20 µM: -0.26 °C
AURKA; read-out: Mean ΔTM AURKA
  ΔTm at 20 µM: 0.1 °C
CDK2; read-out: Mean ΔTM CDK2
  ΔTm at 20 µM: -0.06 °C
FGFR3; read-out: Mean ΔTM FGFR3
  ΔTm at 20 µM: -0.16 °C
GSK3B; read-out: Mean ΔTM GSK3B
  ΔTm at 20 µM: -0.23 °C
BRD4; read-out: Mean ΔTM BRD4
  ΔTm at 20 µM: 0.17 °C
BRPF1; read-out: Mean ΔTM BRPF1
  ΔTm at 20 µM: -1.02 °C
CSNK1D; read-out: Mean ΔTM CSNK1D
  ΔTm at 20 µM: -2.48e-05 °C
MAPK1; read-out: Mean ΔTM MAPK1
  ΔTm at 20 µM: 0.17 °C
TRIM24; read-out: Mean ΔTM TRIM24
  ΔTm at 20 µM: -0.91 °C
[2]; 1 µM, 1,5 h
  Mean NFκB response: 2799.98 GFP+-cells/confluence ∙ 1000
[2]; 1 µM, 4,5 h
  Mean NFκB response: 3728.04 GFP+-cells/confluence ∙ 1000
[2]; 1 µM, 7,5 h
  Mean NFκB response: 7006.53 GFP+-cells/confluence ∙ 1000
[2]; 1 µM, 10,5 h
  Mean NFκB response: 14006.47 GFP+-cells/confluence ∙ 1000
[2]; 1 µM, 13,5 h
  Mean NFκB response: 19614.51 GFP+-cells/confluence ∙ 1000
[2]; 1 µM, 16,6 h
  Mean NFκB response: 24279.62 GFP+-cells/confluence ∙ 1000
[2]; 1 µM, 19,5 h
  Mean NFκB response: 27366.03 GFP+-cells/confluence ∙ 1000
[2]; 1 µM, 22,5 h
  Mean NFκB response: 29896.67 GFP+-cells/confluence ∙ 1000
[2]; 1 µM, 3 h
  Mean NFκB response: 3180.38 GFP+-cells/confluence ∙ 1000
[2]; 1 µM, 6 h
  Mean NFκB response: 4651.42 GFP+-cells/confluence ∙ 1000
[2]; 1 µM, 9 h
  Mean NFκB response: 10914.09 GFP+-cells/confluence ∙ 1000
[2]; 1 µM, 12 h
  Mean NFκB response: 17161.43 GFP+-cells/confluence ∙ 1000
[2]; 1 µM, 15 h
  Mean NFκB response: 22438.14 GFP+-cells/confluence ∙ 1000
[2]; 1 µM, 18 h
  Mean NFκB response: 25981.67 GFP+-cells/confluence ∙ 1000
[2]; 1 µM, 21 h
  Mean NFκB response: 28773.18 GFP+-cells/confluence ∙ 1000
[2]; 1 µM, 24 h
  Mean NFκB response: 30941.17 GFP+-cells/confluence ∙ 1000
[3]; Homo sapiens, HeLa, 1 µM, read-out: ER stress [rel. ATF6 activity]
  activity at 1 µM: 80%
NR3C2 (MR)
  EC50: 0.34 ± 0.04 nM
HEK293T cells [4]; 1 µM
  Metabolic activity [MA]: 1.07 (2×) and 1.02 and 0.98 and 1.08 and 0.99 (2×) and 0.93
HEK293T cells [5]; 1 µM
  Growth rate [GR]: 0.87 and 0.57 and 0.92 and 1.28 and 0.95 and 0.82 and 0.93 and 0.54 and 0.81 and -0.31
HEK293T cells [6]; 1 µM
  Apoptosis induction [AI]: 0.40 and 0.56 and 0.73 and 0.75 and 0.46 and 0.86

## Medroxyprogesterone
HEK293T cells [1]; 0.3 µM
  Necrosis induction [NI]: 0.91 (2×) and 1.04 and 0.81
ABL1
  Mean ΔTM ABL1: -0.24 K
AURKA
  Mean ΔTM AURKA: 0.0165 K
CDK2
  Mean ΔTM CDK2: -0.39 K
FGFR3
  Mean ΔTM FGFR3: -0.32 K
GSK3B
  Mean ΔTM GSK3B: -0.99 K
BRD4
  Mean ΔTM BRD4: -1.17 K
BRPF1; DSF, 20 µM, n=2
  Mean ΔTM BRPF1: 0.25 K
CSNK1D
  Mean ΔTM CSNK1D: -0.11 K
MAPK1
  Mean ΔTM MAPK1: 0.18 K
TRIM24
  Mean ΔTM TRIM24: -0.75 K
[2]; 0.3 µM, 1,5 h
  Mean NFκB response: 2817.45 GFP+-cells/confluence ∙ 1000
[2]; 0.3 µM, 4,5 h
  Mean NFκB response: 3349.18 GFP+-cells/confluence ∙ 1000
[2]; 0.3 µM, 7,5 h
  Mean NFκB response: 6986.39 GFP+-cells/confluence ∙ 1000
[2]; 0.3 µM, 10,5 h
  Mean NFκB response: 17788.45 GFP+-cells/confluence ∙ 1000
[2]; 0.3 µM, 13,5 h
  Mean NFκB response: 26308.75 GFP+-cells/confluence ∙ 1000
[2]; 0.3 µM, 16,6 h
  Mean NFκB response: 32691.58 GFP+-cells/confluence ∙ 1000
[2]; 0.3 µM, 19,5 h
  Mean NFκB response: 37046.67 GFP+-cells/confluence ∙ 1000
[2]; 0.3 µM, 22,5 h
  Mean NFκB response: 41020.00 GFP+-cells/confluence ∙ 1000
[2]; 0.3 µM, 3 h
  Mean NFκB response: 2918.53 GFP+-cells/confluence ∙ 1000
[2]; 0.3 µM, 6 h
  Mean NFκB response: 4035.46 GFP+-cells/confluence ∙ 1000
[2]; 0.3 µM, 9 h
  Mean NFκB response: 12242.08 GFP+-cells/confluence ∙ 1000
[2]; 0.3 µM, 12 h
  Mean NFκB response: 21999.86 GFP+-cells/confluence ∙ 1000
[2]; 0.3 µM, 15 h
  Mean NFκB response: 29772.36 GFP+-cells/confluence ∙ 1000
[2]; 0.3 µM, 18 h
  Mean NFκB response: 34990.00 GFP+-cells/confluence ∙ 1000
[2]; 0.3 µM, 21 h
  Mean NFκB response: 39166.67 GFP+-cells/confluence ∙ 1000
[2]; 0.3 µM, 24 h
  Mean NFκB response: 41696.67 GFP+-cells/confluence ∙ 1000
[3]; 0.3 µM
  ER stress [rel. ATF6 activity]: 0.98 and 0.97 and 1.05 and 0.94 and 0.96
NR3C1 (GR); (lit.), read-out: Potency [nM] EC50, NR3C1 (GR)
  EC50: 10 ± 1 nM
NR3C1 (GR); of dexamet./DXM
  rel. activity from literature, NR3C1 (GR): % of dexamethasone (DXM): 157 ± 22%
NR3C3 (PR); (lit.), ref Supplementary Table 1, read-out: Potency [nM] EC50, NR3C3 (PR)
  EC50: 0.15 ± 0.05 nM
NR3C3 (PR); of PGN (progesterone)
  rel. activity from literature, NR3C3 (PR): % of PGN: 80 ± 7%
[7]
  Other off-target at recom. conc.: 17β-HSD2 and 17β-HSD3 and 17β-HSD1
NR3C4 (AR); of DHT (dihydrotestosterone)
  rel. activity from literature, NR3C4 (AR): % of DHT: 159 ± 10%
NR3C4 (AR); read-out: Potency [nM] IC50, NR3C4 (AR), (lit.)
  IC50: 6 ± 1 nM
HEK293T cells [4]; 0.3 µM
  Metabolic activity [MA]: 0.94 and 1.01 and 0.93 and 1.08
HEK293T cells [5]; 0.3 µM
  Growth rate [GR]: 0.94 and 1.01 and 1.09 and 1.40 and 1.04 (2×) and 0.87 and 1.11 and 0.76 and 1.34
HEK293T cells [6]; 0.3 µM
  Apoptosis induction [AI]: 0.76 and 0.77 and 1.07 and 0.74 (2×) and 0.88
